Assay results reported in US6103888A, “Mammalian cationic proteins having lipopolysaccharide binding and anti-coagulant activity” (priority 1999, dated 2000).

Tests used:
[1] = test system: Salmonella minnesota R595 LPS; assay: Inhibition of RNIP-mediated hemagglutination by LPS preparation; type: binding; settings: Peptide #36-1 16 μg/ml, RNIP (#197) 25 μg/ml preincubated with LPS 37° 30 minutes
Procedure: (§1) For hemagglutination assays, erythrocytes were sensitized with LPS as follows. One ml of 1% erythrocyte suspension (human 0 type, C3H/HeN mouse or sheep) was mixed with 0.2 ml of LPS solution and incubated at 37° C. for 30 min, followed by washing with phosphate buffered saline (PBS), and then the concentration of suspension was adjusted to 1.0%. In the case of S-LPS, the solution was heated at 100° C. for 1 hour before sensitization of erythrocytes. […] Activity of CAP was expressed as a minimum agglutinating concentration (MAC) of CAP. According to the method of Kirikae et al. (1986) Microbiol. Immunol. 30:269-274, 50 μl of 2-fold serial dilution of Re-LPS was added to 50 μl of 1.0% rabbit erythrocyte suspension, and incubated at 37° C. for 3 hour. Minimum agglutinating concentration of Re-LPS was expressed as 1 HA unit.
(§2) Another series of experiments was performed to determine if the #36-1 and #197 (RNIP) peptides were capable of binding to LPS from various species of Gram-negative bacteria. For these experiments, sheep red blood cells were sensitized with Salmonella minnesota Re-LPS. Peptides #36-1 and #197 (RNIP) were preincubated with various preparations of LPS. Both peptides bind to a diverse group of lipopolysaccharides.
(§3) +Peptide #361 (16 μg/ml) and RNIP (#197) (25 μg/ml) were
(§4) preincubated with each LPS preparation at 37° for 30 minutes, and
(§5) each reaction mixture was added to sheep erythrocytes sensitized with […]

[2] = test system: Klebsiella pneumoniae LPS; assay: as above; type: binding; settings: Peptide #36-1 16 μg/ml, RNIP (#197) 25 μg/ml preincubated with LPS 37° 30 minutes
Procedure: as §1, §2, §3, §4, §5

[3] = test system: E. coli J5 LPS; assay: as above; type: binding; settings: Peptide #36-1 16 μg/ml, RNIP (#197) 25 μg/ml preincubated with LPS 37° 30 minutes
Procedure: as §1, §2, §3, §4, §5

[4] = test system: E. coli 0111:B4 LPS; assay: as above; type: binding; settings: Peptide #36-1 16 μg/ml, RNIP (#197) 25 μg/ml preincubated with LPS 37° 30 minutes
Procedure: as §1, §2, §3, §4, §5

[5] = test system: E. coli 0127:B8 LPS; assay: as above; type: binding; settings: Peptide #36-1 16 μg/ml, RNIP (#197) 25 μg/ml preincubated with LPS 37° 30 minutes
Procedure: as §1, §2, §3, §4, §5

[6] = test system: Pseudomonas aeruginosa F-D Type I LPS; assay: as above; type: binding; settings: Peptide #36-1 16 μg/ml, RNIP (#197) 25 μg/ml preincubated with LPS 37° 30 minutes
Procedure: as §1, §2, §3, §4, §5

[7] = test system: E. coli 055:B5 LPS; assay: as above; type: binding; settings: Peptide #36-1 16 μg/ml, RNIP (#197) 25 μg/ml preincubated with LPS 37° 30 minutes
Procedure: as §1, §2, §3, §4, §5

[8] = test system: RAW 264.7 cells; assay: LPS- or IFNγ-induced reactive nitrogen intermediate (RNI) production, Griess nitrite assay; type: cell-based, murine
Procedure: From the sequence of the CAP18 cDNA, it was apparent that the putative N-terminal peptide of CAP18 was in fact an internal fragment of the CAP18 protein. We therefore tried to reconfirm the original protein sequence. Neutrophil-derived heparin bound cationic proteins were prepared as described above and applied to a C18 reverse phase HPLC (FIG. 1). We sequenced the major peaks. Peaks at fractions 14.5 and 15.2 correspond to defensins MCP1 and MCP2 (Territo et al. (1989) J. Clin. Invest. 84:2017-2019), respectively. Fraction 25.8 is macrophage related protein 14 (MRP14) (Odink et al. (1987) Nature 330:80-82). The fraction at 20.3 minutes corresponds to a fragment of CAP18 of approximately 4-5 kD. […] The murine macrophage cell line RAW 264.7 (obtained from ATCC) and thioglycollate-elicited murine peritoneal exudate cells are used to produce RNI. Cells are cultured at 1×10^6 /ml. in RPMI-1640 +2.5% FCS in 24 well plates in the presence or absence of different concentrations of LPS or murine rlFNγ. After 24 hr. incubation at 37° C., the cell free supernatant is collected and tested for the presence of RNI. Accumulation of nitrite in the medium is measured by a calorimetric assay based on the Griess reaction (Green et al. (1982) Anal. Biochem. 126:11) using sodium nitrite as standards. Sample (50 μl) is mixed with 50 μl of Griess reagent (1% sulfanilamide, 0.1% naphthalene diamine dihydrochloride, 2.5% H3 PO4) and after 10 min. at room temperature absorbance is read at 570 nm.

RNIP: rabbit reactive nitrogen inhibitory protein, amino acids 135-171 of SEQ ID NO:4; purified from granulocytes (Tables 1-3) or synthetic (#197) (GLRKRLRKFRNKIKEKLKKIGQKIQGLLPKLAPRTDY)
MIC, minimal inhibitory concentration of LPS [1]: 62.5 µg/mL | MIC, minimal inhibitory concentration of LPS [2]: 62.5 µg/mL | MIC, minimal inhibitory concentration of LPS [3]: 15.6 µg/mL | MIC, minimal inhibitory concentration of LPS [4]: 31.3 µg/mL | MIC, minimal inhibitory concentration of LPS [5]: 62.5 µg/mL | MIC, minimal inhibitory concentration of LPS [6]: 15.6 µg/mL | MIC, minimal inhibitory concentration of LPS [7]: 62.5 µg/mL | concentrations at which peptides are active in the bioassay ([8]; day-to-day variation in the bioassay): 10 to 50 nM | inhibition of LPS-induced RNI production (in words) ([8]; macrophages / RAW 264.7 cells): active
